The compounds below were run against T1, human TLR9 (Homo sapiens, UniProt Q9NR96) (assay: TLR9 inhibition reporter assay (HEK-Blue SEAP, ODN2006 stimulation)). Conditions: HEK-Blue cells overexpressing human TLR9, ODN2006 5 nM.
T1 sequence (Q9NR96 26-1032): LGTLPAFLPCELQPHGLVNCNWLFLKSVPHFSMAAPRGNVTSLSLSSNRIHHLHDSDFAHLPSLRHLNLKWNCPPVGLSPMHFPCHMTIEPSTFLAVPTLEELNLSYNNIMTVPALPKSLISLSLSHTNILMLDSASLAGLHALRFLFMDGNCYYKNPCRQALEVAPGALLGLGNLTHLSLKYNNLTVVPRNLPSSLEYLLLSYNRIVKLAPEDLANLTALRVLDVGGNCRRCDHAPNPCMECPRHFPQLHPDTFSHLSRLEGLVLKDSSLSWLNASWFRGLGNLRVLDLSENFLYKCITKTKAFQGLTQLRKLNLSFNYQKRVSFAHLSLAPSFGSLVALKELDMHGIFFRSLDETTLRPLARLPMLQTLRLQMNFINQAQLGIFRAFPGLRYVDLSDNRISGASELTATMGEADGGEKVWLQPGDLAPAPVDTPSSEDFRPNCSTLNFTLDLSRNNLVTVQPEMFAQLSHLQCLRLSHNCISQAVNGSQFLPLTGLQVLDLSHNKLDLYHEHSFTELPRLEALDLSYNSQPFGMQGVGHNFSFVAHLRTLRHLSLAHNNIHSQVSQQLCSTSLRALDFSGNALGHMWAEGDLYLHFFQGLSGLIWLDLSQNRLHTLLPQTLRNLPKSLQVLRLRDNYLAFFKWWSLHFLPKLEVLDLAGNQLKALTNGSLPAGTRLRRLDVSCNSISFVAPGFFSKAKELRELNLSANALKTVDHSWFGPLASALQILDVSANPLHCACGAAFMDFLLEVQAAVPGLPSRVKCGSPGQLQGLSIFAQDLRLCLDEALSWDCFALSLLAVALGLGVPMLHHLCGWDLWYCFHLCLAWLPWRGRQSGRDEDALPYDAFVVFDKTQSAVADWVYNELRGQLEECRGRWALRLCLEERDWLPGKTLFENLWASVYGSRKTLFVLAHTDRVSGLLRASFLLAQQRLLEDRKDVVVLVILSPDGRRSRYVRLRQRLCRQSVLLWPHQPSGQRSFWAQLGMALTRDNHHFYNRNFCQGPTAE
Assay type: cell-based
Method: TLR7/8/9 Inhibition Reporter Assays
HEK-Blue™-cells (Invivogen) overexpressing human TLR7, TLR8 or TLR9 receptors were used for screening inhibitors of these receptors using an inducible SEAP (secreted embryonic alkaline phosphatase) reporter gene under the control of the IFN-β minimal promoter fused to five NF-κB and AP-1-binding sites. Briefly, cells are seeded into Greiner 384 well plates (15000 cells per well for TLR7, 20,000 for TLR8 and 25,000 for TLR9) and then treated with test compounds in DMSO to yield a final dose response concentration range of 0.05 nM-50 μM. After a 30 minute compound pre-treatment at room temperature, the cells are then stimulated with a TLR7 ligand (gardiquimod at a final concentration of 7.5 μM), TLR8 ligand (R848 at a final concentration of 15.9 μM) or TLR9 ligand (ODN2006 at a final concentration of 5 nM) to activate NF-κB and AP-1 which induce the production of SEAP. After a 22 hour incubation at 37° C., 5% CO2, SEAP levels are determined with the addition of HEK-Blue™ Detection reagent (Invivogen), a cell culture medium that allows for detection of SEAP, according to manufacturer's specifications. The percent inhibition is determined as the % reduction in the HEK-Blue signal present in wells treated with agonist plus DMSO alone compared to wells treated with a known inhibitor.

IC50, > 50 µM:
Cc1c(-c2[nH]c3sc(N4CCN(CC(N)=O)C[C@H]4C)nc3c2C(C)C)cn2ncnc2c1C [Example 313, (R)-2-(4-(5-(7,8-dimethyl-[1,2,4]triazolo[1,5-a]pyridin-6-yl)-6-isopropyl-4H-pyrrolo[3,2-d]thiazol-2-yl)-3-methylpiperazin-1-yl)acetamide]
Cc1c(-c2[nH]c3sc(N4CCN(CCS(C)(=O)=O)C[C@H]4C)nc3c2C(C)C)cn2ncnc2c1C [Example 314, (R)-5-(7,8-dimethyl-[1,2,4]triazolo[1,5-a]pyridin-6-yl)-6-isopropyl-2-(2-methyl-4-(2-(methylsulfonyl)ethyl)piperazin-1-yl)-4H-pyrrolo[3,2-d]thiazole]
CNC(=O)CN1CCN(c2nc3c(C(C)C)c(-c4cn5ncnc5c(C)c4C)[nH]c3s2)[C@H](C)C1 [Example 315, (R)-2-(4-(5-(7,8-dimethyl-[1,2,4]triazolo[1,5-a]pyridin-6-yl)-6-isopropyl-4H-pyrrolo[3,2-d]thiazol-2-yl)-3-methylpiperazin-1-yl)-N-methylacetamide]
Cc1c(-c2[nH]c3sc(N4CCN(C5COC5)C[C@H]4C)nc3c2C(C)C)cn2ncnc2c1C [Example 316, (R)-5-(7,8-dimethyl-[1,2,4]triazolo[1,5-a]pyridin-6-yl)-6-isopropyl-2-(2-methyl-4-(oxetan-3-yl)piperazin-1-yl)-4H-pyrrolo[3,2-d]thiazole]
Cc1c(-c2[nH]c3sc(N4C[C@@H](C)N(CC(=O)N(C)C)C[C@@H]4C)nc3c2C(C)C)cn2ncnc2c1C [Example 335, 2-((2R,5S)-4-(5-(7,8-dimethyl-[1,2,4]triazolo[1,5-a]pyridin-6-yl)-6-isopropyl-4H-pyrrolo[3,2-d]thiazol-2-yl)-2,5-dimethylpiperazin-1-yl)-N,N-dimethylacetamide]
CNC(=O)CN1CCN(c2nc3c(C(C)C)c(-c4cn5ncnc5c(C)c4C)[nH]c3s2)[C@@H](C)C1 [Example 342, (S)-2-(4-(5-(7,8-dimethyl-[1,2,4]triazolo[1,5-a]pyridin-6-yl)-6-isopropyl-4H-pyrrolo[3,2-d]thiazol-2-yl)-3-methylpiperazin-1-yl)-N-methylacetamide]
Cc1c(-c2[nH]c3sc(N4CCN(CC(=O)N(C)C)C[C@@H]4C)nc3c2C(C)C)cn2ncnc2c1C [Example 343, (S)-2-(4-(5-(7,8-dimethyl-[1,2,4]triazolo[1,5-a]pyridin-6-yl)-6-isopropyl-4H-pyrrolo[3,2-d]thiazol-2-yl)-3-methylpiperazin-1-yl)-N,N-dimethylacetamide]
Cc1c(-c2[nH]c3sc(N4CCN(CCS(C)(=O)=O)C[C@@H]4C)nc3c2C(C)C)cn2ncnc2c1C [Example 344, (S)-5-(7,8-dimethyl-[1,2,4]triazolo[1,5-a]pyridin-6-yl)-6-isopropyl-2-(2-methyl-4-(2-(methylsulfonyl)ethyl)piperazin-1-yl)-4H-pyrrolo[3,2-d]thiazole]
Cc1c(-c2[nH]c3sc(N4CCN(CC(C)(C)O)C[C@@H]4C)nc3c2C(C)C)cn2ncnc2c1C [Example 345, (S)-1-(4-(5-(7,8-dimethyl-[1,2,4]triazolo[1,5-a]pyridin-6-yl)-6-isopropyl-4H-pyrrolo[3,2-d]thiazol-2-yl)-3-methylpiperazin-1-yl)-2-methylpropan-2-ol]
Cc1c(-c2[nH]c3sc(N4CCN(C(=O)C5CCS(=O)(=O)CC5)C[C@@H]4C)nc3c2C(C)C)cn2ncnc2c1C [Example 347, (S)-(4-(5-(7,8-dimethyl-[1,2,4]triazolo[1,5-a]pyridin-6-yl)-6-isopropyl-4H-pyrrolo[3,2-d]thiazol-2-yl)-3-methylpiperazin-1-yl)(1,1-dioxidotetrahydro-2H-thiopyran-4-yl)methanone]
Cc1c(-c2[nH]c3sc(N4CCN(C5COC5)C[C@@H]4C)nc3c2C(C)C)cn2ncnc2c1C [Example 348, (S)-5-(7,8-dimethyl-[1,2,4]triazolo[1,5-a]pyridin-6-yl)-6-isopropyl-2-(2-methyl-4-(oxetan-3-yl)piperazin-1-yl)-4H-pyrrolo[3,2-d]thiazole]
Cc1c(-c2[nH]c3sc(N4CCN(C5CCC5)C[C@@H]4C)nc3c2C(C)C)cn2ncnc2c1C [Example 349]
Cc1cc(-c2[nH]c3sc(N4CCN(C(=O)CN(C)C)C[C@H]4C)nc3c2C(C)C)cn2ncnc12 [Example 360, (R)-2-(dimethylamino)-1-(4-(6-isopropyl-5-(8-methyl-[1,2,4]triazolo[1,5-a]pyridin-6-yl)-4H-pyrrolo[3,2-d]thiazol-2-yl)-3-methylpiperazin-1-yl)ethan-1-one]
Cc1c(-c2[nH]c3sc(C(=O)NCCCN4CCCC4=O)nc3c2C(C)C)cn2ncnc2c1C [Example 371, 5-(7,8-dimethyl-[1,2,4]triazolo[1,5-a]pyridin-6-yl)-6-isopropyl-N-(3-(2-oxopyrrolidin-1-yl)propyl)-4H-pyrrolo[3,2-d]thiazole-2-carboxamide]
Cc1c(-c2[nH]c3sc(C(=O)N4CCCC4)nc3c2C(C)C)cn2ncnc2c1C [Example 377, (5-(7,8-dimethyl-[1,2,4]triazolo[1,5-a]pyridin-6-yl)-6-isopropyl-4H-pyrrolo[3,2-d]thiazol-2-yl)(pyrrolidin-1-yl)methanone]
Cc1c(-c2[nH]c3sc(C(=O)N4CCNC(=O)C4)nc3c2C(C)C)cn2ncnc2c1C [Example 378, 4-(5-(7,8-dimethyl-[1,2,4]triazolo[1,5-a]pyridin-6-yl)-6-isopropyl-4H-pyrrolo[3,2-d]thiazole-2-carbonyl)piperazin-2-one]
Cc1c(-c2[nH]c3sc(C(=O)N4CCN(S(C)(=O)=O)CC4)nc3c2C(C)C)cn2ncnc2c1C [Example 384, (5-(7,8-dimethyl-[1,2,4]triazolo[1,5-a]pyridin-6-yl)-6-isopropyl-4H-pyrrolo[3,2-d]thiazol-2-yl)(4-(methylsulfonyl)piperazin-1-yl) methanone]
Cc1c(-c2[nH]c3sc(C(N)=O)nc3c2C(C)C)cn2ncnc2c1C [Example 385, 5-(7,8-dimethyl-[1,2,4]triazolo[1,5-a]pyridin-6-yl)-6-isopropyl-4H-pyrrolo[3,2-d]thiazole-2-carboxamide]
COc1cc(-c2[nH]c3sc(C(=O)NCC(F)(F)F)nc3c2C(C)C)cn2ncnc12 [Example 390, 6-isopropyl-5-(8-methoxy-[1,2,4]triazolo[1,5-a]pyridin-6-yl)-N-(2,2,2-trifluoroethyl)-4H-pyrrolo[3,2-d]thiazole-2-carboxamide]
Cc1cc(-c2[nH]c3sc(C(N)=O)nc3c2C(C)C)cn2ncnc12 [Example 391, 6-isopropyl-5-(8-methyl-[1,2,4]triazolo[1,5-a]pyridin-6-yl)-4H-pyrrolo[3,2-d]thiazole-2-carboxamide]
Cc1cc(-c2[nH]c3sc(C(=O)N4CCNC(=O)C4)nc3c2C(C)C)cn2ncnc12 [Example 392, 4-(6-isopropyl-5-(8-methyl-[1,2,4]triazolo[1,5-a]pyridin-6-yl)-4H-pyrrolo[3,2-d]thiazole-2-carbonyl)piperazin-2-one]

Reference: patent publication US12448395B2 (BRISTOL-MYERS SQUIBB COMPANY, priority 2019, dated 2025)
